According to paper PMC8366290, “Efficacy of a Novel Bi-Steric mTORC1 Inhibitor in Models of B-Cell Acute Lymphoblastic Leukemia” (Frontiers in Oncology, 2021):

Biological target: T1, mTOR (mTORC1) (Homo sapiens, UniProt P42345)
T1 construct: with raptor (mTORC1 complex)
Assay: MSD electrochemiluminescent assay of p4E-BP1 T37/T46 in SUP-B15 cells, with immunoblot
Format: cell-based

EC50: 2 nM
SMILES: CO[C@H]1C[C@@H]2CC[C@@H](C)[C@@](O)(O2)C(=O)C(=O)N2CCCC[C@H]2C(=O)O[C@H]([C@H](C)C[C@@H]2CC[C@@H](OCCCCc3cn(CCOCCOCCOCCOCCOCCOCCOCCOCCC(=O)NCCCCn4nc(-c5cc6cc(O)ccc6[nH]5)c5c(N)ncnc54)nn3)[C@H](OC)C2)CC(=O)[C@H](C)/C=C(\C)[C@@H](O)[C@@H](OC)C(=O)[C@H](C)C[C@H](C)/C=C/C=C/C=C/1C [RMC-4627]
